Values of other authors, collected in patent US20060008520A1, “Delayed release formulations of 6-mercaptopurine” (priority 2004, published 2006).

Compound: Sc1ncnc2nc[nH]c12 [6-MP, 6-mercaptopurine]
- fraction of an oral dose absorbed: Approximately 50%
